Where a SMILES comes first, the peptide text is derived from it. Bridges are numbered along the chain shown (N, C = ends). [ ]: non-standard residue; d: D form. The star is where a group is joined. hPhe(3-Cl-4-CF3) = N[C@@H](CCc1ccc(C(F)(F)F)c(Cl)c1)C(=O)O; NPrPhe(4-CF3) = CCCN[C@@H](Cc1ccc(C(F)(F)F)cc1)C(=O)O; Pro(4-spirocPr) = O=C(O)[C@@H]1CC2(CC2)CN1; Morpholine(3S-CO) = O=C(O)[C@@H]1COCCN1; Pip(4,4-F2) = O=C(O)[C@@H]1CC(F)(F)CCN1; NMeGly(cPent) = CN[C@H](C(=O)O)C1CCCC1; Gly(cPent) = N[C@H](C(=O)O)C1CCCC1; Hyp = O=C(O)[C@@H]1C[C@@H](O)CN1; Gly(cBu) = N[C@H](C(=O)O)C1CCC1; NMeD = CN[C@@H](CC(=O)O)C(=O)O; NMeL = CN[C@@H](CC(C)C)C(=O)O; Pip = O=C(O)[C@@H]1CCCCN1; Morpholide = C1CN(*)CCO1; Ac5c = NC1(C(=O)O)CCCC1; Aze = O=C(O)[C@@H]1CCN1; NPrGly = CCCNCC(=O)O; NEtG = CCNCC(=O)O; Sar = CNCC(=O)O
Columns and labels:
[1] = target: GDP-bound NRAS wild-type protein (Homo sapiens, UniProt P01111); experiment: Binding to NRAS by surface plasmon resonance (SPR), KD and KD ratio to KRAS; details: ratio of KD for GDP-bound NRAS wild-type protein to KD for KRAS
Sequence of GDP-bound NRAS wild-type protein (P01111 whole entry): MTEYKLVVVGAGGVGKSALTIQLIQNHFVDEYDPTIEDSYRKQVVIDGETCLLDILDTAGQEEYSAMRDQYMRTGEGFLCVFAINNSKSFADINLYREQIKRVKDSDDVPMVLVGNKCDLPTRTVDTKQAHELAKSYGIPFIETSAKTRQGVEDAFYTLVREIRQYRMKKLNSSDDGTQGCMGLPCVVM
In short: (§1)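 SPR, 30°C: Avi-biotin RAS·GDP captured via Biotin CAPture (~100–300 RU); running buffer HBS pH 7.4, 1 mM DTT, 10 mM MgCl2, 0.01% Tween 20, 10 µM GDP, 4% DMSO. Single-cycle kinetics, 100 µL/min, 75 s injections; 1:1 model → KD.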

[2] = target: HRAS wild-type protein (Homo sapiens, UniProt P01112); experiment: Binding to HRAS by surface plasmon resonance (SPR), KD and KD ratio to KRAS; details: ratio of KD for HRAS wild-type protein to KD for KRAS
Sequence of HRAS wild-type protein (P01112 whole entry): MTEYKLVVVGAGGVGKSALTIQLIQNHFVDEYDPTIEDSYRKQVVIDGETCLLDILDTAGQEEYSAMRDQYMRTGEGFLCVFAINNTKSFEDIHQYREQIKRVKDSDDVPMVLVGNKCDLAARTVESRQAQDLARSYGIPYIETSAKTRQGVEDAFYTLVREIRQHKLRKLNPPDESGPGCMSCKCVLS
In short: as §1

[3] = tested on: human lung cancer strain NCI-H441; assay type: cell-based
In short: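 Proliferation was scored by […] measured after the reagent was added to cultures kept at 37°C in 5% carbon dioxide.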

SMILES	IC50 [3] [nM]	NRAS /KRAS [1]	HRAS /KRAS [2]
CCCN1C(=O)CN(C)C(=O)CN(CC)C(=O)[C@H](C2CCCC2)NC(=O)[C@H](CC(C)C)N(C)C(=O)C[C@@H](C(=O)N2CCOCC2)N(C)C(=O)[C@H](C2CCCC2)N(C)C(=O)C2(CCCC2)NC(=O)[C@@H]2CCCN2C(=O)[C@H](CCc2ccc(C(F)(F)F)c(Cl)c2)NC(=O)CN(C)C(=O)[C@@H]1Cc1ccc(C(F)(F)F)cc1 [PP0293] ([NMeL][Gly(cPent)][NEtG][Sar][NPrPhe(4-CF3)][Sar][hPhe(3-Cl-4-CF3)]P[Ac5c][NMeGly(cPent)][NMeD]-Morpholide; lactam N-11)	37.6	B (a compound having 3 or more and less than 10 is denoted as B)	C (A compound having a KD ratio of 0.1 or more and less than 3 is denoted as C)
CCCN1C(=O)CN(C)C(=O)CN(CC)C(=O)[C@H]([C@@H](C)CC)NC(=O)[C@H](CC(C)C)N(C)C(=O)C[C@@H](C(=O)N2CCOCC2)N(C)C(=O)[C@H](C2CCCC2)N(C)C(=O)C2(CCCC2)NC(=O)[C@@H]2CCN2C(=O)[C@H](CCc2ccc(C(F)(F)F)c(Cl)c2)NC(=O)CN(C)C(=O)[C@@H]1Cc1ccc(C(F)(F)F)cc1 [PP0294] ([NMeL]I[NEtG][Sar][NPrPhe(4-CF3)][Sar][hPhe(3-Cl-4-CF3)][Aze][Ac5c][NMeGly(cPent)][NMeD]-Morpholide; lactam N-11)	55.4	B (a compound having 3 or more and less than 10 is denoted as B)	C (A compound having a KD ratio of 0.1 or more and less than 3 is denoted as C)
CCCN1C(=O)CN(C)C(=O)CN(CC)C(=O)[C@H]([C@@H](C)CC)NC(=O)[C@H](CC(C)C)N(C)C(=O)C[C@@H](C(=O)N2CCOCC2)N(C)C(=O)[C@H](C2CCCC2)N(C)C(=O)C2(CCCC2)NC(=O)[C@@H]2CC(F)(F)CCN2C(=O)[C@H](CCc2ccc(C(F)(F)F)c(Cl)c2)NC(=O)CN(C)C(=O)[C@@H]1Cc1ccc(C(F)(F)F)cc1 [PP0298] ([NMeL]I[NEtG][Sar][NPrPhe(4-CF3)][Sar][hPhe(3-Cl-4-CF3)][Pip(4,4-F2)][Ac5c][NMeGly(cPent)][NMeD]-Morpholide; lactam N-11)	41.1	B (a compound having 3 or more and less than 10 is denoted as B)	C (A compound having a KD ratio of 0.1 or more and less than 3 is denoted as C)
CCCN1C(=O)CN(C)C(=O)CN(CC)C(=O)[C@H]([C@@H](C)CC)NC(=O)[C@H](CC(C)C)N(C)C(=O)C[C@@H](C(=O)N2CCOCC2)N(C)C(=O)[C@H](C2CCCC2)N(C)C(=O)C2(CCCC2)NC(=O)CN(C)C(=O)[C@H](CCc2ccc(C(F)(F)F)c(Cl)c2)NC(=O)CN(C)C(=O)[C@@H]1Cc1ccc(C(F)(F)F)cc1 [PP0300] ([NMeL]I[NEtG][Sar][NPrPhe(4-CF3)][Sar][hPhe(3-Cl-4-CF3)][Sar][Ac5c][NMeGly(cPent)][NMeD]-Morpholide; lactam N-11)	73.9	B (a compound having 3 or more and less than 10 is denoted as B)	C (A compound having a KD ratio of 0.1 or more and less than 3 is denoted as C)
CCCN1CC(=O)NC2(CCCC2)C(=O)N(C)[C@@H](C2CCCC2)C(=O)N(C)[C@H](C(=O)N2CCOCC2)CC(=O)N(C)[C@@H](CC(C)C)C(=O)N[C@@H]([C@@H](C)CC)C(=O)N(CC)CC(=O)N(C)CC(=O)N(CCC)[C@@H](Cc2ccc(C(F)(F)F)cc2)C(=O)N(C)CC(=O)N[C@@H](CCc2ccc(C(F)(F)F)c(Cl)c2)C1=O [PP0301] ([NMeL]I[NEtG][Sar][NPrPhe(4-CF3)][Sar][hPhe(3-Cl-4-CF3)][NPrGly][Ac5c][NMeGly(cPent)][NMeD]-Morpholide; lactam N-11)	88.2	B (a compound having 3 or more and less than 10 is denoted as B)	C (A compound having a KD ratio of 0.1 or more and less than 3 is denoted as C)
CCCN1C(=O)CN(C)C(=O)[C@@H]2CCN2C(=O)[C@H](C2CCC2)NC(=O)[C@H](CC(C)C)N(C)C(=O)C[C@@H](C(=O)N2CCOCC2)N(C)C(=O)[C@H](C2CCCC2)N(C)C(=O)C2(CCCC2)NC(=O)[C@@H]2CCCN2C(=O)[C@H](CCc2ccc(C(F)(F)F)c(Cl)c2)NC(=O)CN(C)C(=O)[C@@H]1Cc1ccc(C(F)(F)F)cc1 [PP0305] ([NMeL][Gly(cBu)][Aze][Sar][NPrPhe(4-CF3)][Sar][hPhe(3-Cl-4-CF3)]P[Ac5c][NMeGly(cPent)][NMeD]-Morpholide; lactam N-11)	49.6	B (a compound having 3 or more and less than 10 is denoted as B)	C (A compound having a KD ratio of 0.1 or more and less than 3 is denoted as C)
CCCN1C(=O)CN(C)C(=O)[C@@H]2CCN2C(=O)[C@H]([C@@H](C)CC)NC(=O)[C@H](CC(C)C)N(C)C(=O)C[C@@H](C(=O)N2CCOCC2)N(C)C(=O)[C@H](C2CCCC2)N(C)C(=O)C2(CCCC2)NC(=O)[C@@H]2CCCCN2C(=O)[C@H](CCc2ccc(C(F)(F)F)c(Cl)c2)NC(=O)CN(C)C(=O)[C@@H]1Cc1ccc(C(F)(F)F)cc1 [PP0311] ([NMeL]I[Aze][Sar][NPrPhe(4-CF3)][Sar][hPhe(3-Cl-4-CF3)][Pip][Ac5c][NMeGly(cPent)][NMeD]-Morpholide; lactam N-11)	147	B (a compound having 3 or more and less than 10 is denoted as B)	B (a compound having 3 or more and less than 10 is denoted as B)

These reach a lower IC50 [3]. Values come first.

IC50 [3] [nM]	SMILES	NRAS /KRAS [1]	HRAS /KRAS [2]
36.3	CCCN1C(=O)CN(C)C(=O)CN(CC)C(=O)[C@H](C2CCC2)NC(=O)[C@H](CC(C)C)N(C)C(=O)C[C@@H](C(=O)N2CCOCC2)N(C)C(=O)[C@H](C2CCCC2)N(C)C(=O)C2(CCCC2)NC(=O)[C@@H]2CCCN2C(=O)[C@H](CCc2ccc(C(F)(F)F)c(Cl)c2)NC(=O)CN(C)C(=O)[C@@H]1Cc1ccc(C(F)(F)F)cc1 [PP0292] ([NMeL][Gly(cBu)][NEtG][Sar][NPrPhe(4-CF3)][Sar][hPhe(3-Cl-4-CF3)]P[Ac5c][NMeGly(cPent)][NMeD]-Morpholide; lactam N-11)	B (a compound having 3 or more and less than 10 is denoted as B)	C (A compound having a KD ratio of 0.1 or more and less than 3 is denoted as C)
33.2	CCCN1C(=O)CN(C)C(=O)CN(CC)C(=O)[C@H]([C@@H](C)CC)NC(=O)[C@H](CC(C)C)N(C)C(=O)C[C@@H](C(=O)N2CCOCC2)N(C)C(=O)[C@H](C2CCCC2)N(C)C(=O)C2(CCCC2)NC(=O)[C@@H]2CC3(CC3)CN2C(=O)[C@H](CCc2ccc(C(F)(F)F)c(Cl)c2)NC(=O)CN(C)C(=O)[C@@H]1Cc1ccc(C(F)(F)F)cc1 [PP0295] ([NMeL]I[NEtG][Sar][NPrPhe(4-CF3)][Sar][hPhe(3-Cl-4-CF3)][Pro(4-spirocPr)][Ac5c][NMeGly(cPent)][NMeD]-Morpholide; lactam N-11)	B (a compound having 3 or more and less than 10 is denoted as B)	C (A compound having a KD ratio of 0.1 or more and less than 3 is denoted as C)
20.2	CCCN1C(=O)CN(C)C(=O)CN(CC)C(=O)[C@H]([C@@H](C)CC)NC(=O)[C@H](CC(C)C)N(C)C(=O)C[C@@H](C(=O)N2CCOCC2)N(C)C(=O)[C@H](C2CCCC2)N(C)C(=O)C2(CCCC2)NC(=O)[C@@H]2COCCN2C(=O)[C@H](CCc2ccc(C(F)(F)F)c(Cl)c2)NC(=O)CN(C)C(=O)[C@@H]1Cc1ccc(C(F)(F)F)cc1 [PP0299] ([NMeL]I[NEtG][Sar][NPrPhe(4-CF3)][Sar][hPhe(3-Cl-4-CF3)][Morpholine(3S-CO)][Ac5c][NMeGly(cPent)][NMeD]-Morpholide; lactam N-11)	B (a compound having 3 or more and less than 10 is denoted as B)	B (a compound having 3 or more and less than 10 is denoted as B)
13.8	CCCN1C(=O)CN(C)C(=O)[C@@H]2CCN2C(=O)[C@H]([C@@H](C)CC)NC(=O)[C@H](CC(C)C)N(C)C(=O)C[C@@H](C(=O)N2CCOCC2)N(C)C(=O)[C@H](C2CCCC2)N(C)C(=O)C2(CCCC2)NC(=O)[C@@H]2C[C@@H](OCC)CN2C(=O)[C@H](CCc2ccc(C(F)(F)F)c(Cl)c2)NC(=O)CN(C)C(=O)[C@@H]1Cc1ccc(C(F)(F)F)cc1 [PP0310] ([NMeL]I[Aze][Sar][NPrPhe(4-CF3)][Sar][hPhe(3-Cl-4-CF3)][Hyp](Et)[Ac5c][NMeGly(cPent)][NMeD]-Morpholide; lactam N-11)	B (a compound having 3 or more and less than 10 is denoted as B)	C (A compound having a KD ratio of 0.1 or more and less than 3 is denoted as C)
4.3	CCCN1C(=O)CN(C)C(=O)CN(CC)C(=O)[C@H]([C@@H](C)CC)NC(=O)[C@H](CC(C)C)N(C)C(=O)C[C@@H](C(=O)N2CCOCC2)N(C)C(=O)[C@H](C2CCCC2)N(C)C(=O)C2(CCCC2)NC(=O)[C@@H]2C[C@@H](OC)CN2C(=O)[C@H](CCc2ccc(C(F)(F)F)c(Cl)c2)NC(=O)CN(C)C(=O)[C@@H]1Cc1ccc(C(F)(F)F)cc1 [PP0296] ([NMeL]I[NEtG][Sar][NPrPhe(4-CF3)][Sar][hPhe(3-Cl-4-CF3)][Hyp](Me)[Ac5c][NMeGly(cPent)][NMeD]-Morpholide; lactam N-11)	B (a compound having 3 or more and less than 10 is denoted as B)	C (A compound having a KD ratio of 0.1 or more and less than 3 is denoted as C)
